Measurements: PubChem BioAssay (NCI)
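96-well plates; 48 h exposure; 5 concentrations. Endpoints by linear interpolation between flanking doses. Not reached: highest tested concentration assigned. GI50 marks 50% less growth. TGI denotes the concentration required for complete inhibition of growth.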

Experiments:
Assay in all cases: NCI-60 cell line screen, 48 h
M14 melanoma = test system: M14 melanoma
UACC-62 melanoma = test system: UACC-62 melanoma
786-0 renal = test system: 786-0 renal
COLO 205 colon = test system: COLO 205 colon
KM12 colon = test system: KM12 colon
HCT-116 colon = test system: HCT-116 colon
MALME-3M melanoma = test system: MALME-3M melanoma
NCI-H226 lung = test system: NCI-H226 lung
SNB-75 CNS = test system: SNB-75 CNS
HCT-15 colon = test system: HCT-15 colon
SK-OV-3 ovarian = test system: SK-OV-3 ovarian
HCC-2998 colon = test system: HCC-2998 colon
HS 578T breast = test system: HS 578T breast
MDA-MB-435 = test system: MDA-MB-435
PC-3 prostate = test system: PC-3 prostate
OVCAR-3 ovarian = test system: OVCAR-3 ovarian
NCI-H522 lung = test system: NCI-H522 lung
NCI-H460 lung = test system: NCI-H460 lung
NCI-H23 lung = test system: NCI-H23 lung
MOLT-4 leukemia = test system: MOLT-4 leukemia
SK-MEL-28 melanoma = test system: SK-MEL-28 melanoma
SK-MEL-2 melanoma = test system: SK-MEL-2 melanoma
UACC-257 melanoma = test system: UACC-257 melanoma
SR leukemia = test system: SR leukemia
SF-268 CNS = test system: SF-268 CNS
A549 NSCLC = test system: A549 NSCLC
OVCAR-5 ovarian = test system: OVCAR-5 ovarian
UO-31 renal = test system: UO-31 renal
CAKI-1 renal = test system: CAKI-1 renal
K-562 leukemia = test system: K-562 leukemia
MCF7 breast = test system: MCF7 breast
HT29 colon = test system: HT29 colon
SN12C renal = test system: SN12C renal
HOP-62 NSCLC = test system: HOP-62 NSCLC
TK-10 renal = test system: TK-10 renal
IGROV1 ovarian = test system: IGROV1 ovarian
SNB-19 CNS = test system: SNB-19 CNS
SF-539 CNS = test system: SF-539 CNS
RXF 393 renal = test system: RXF 393 renal
DU-145 prostate = test system: DU-145 prostate
T-47D breast = test system: T-47D breast
HOP-92 NSCLC = test system: HOP-92 NSCLC
U251 CNS = test system: U251 CNS
CCRF-CEM leukemia = test system: CCRF-CEM leukemia
ACHN renal = test system: ACHN renal
NCI/ADR-RES ovarian = test system: NCI/ADR-RES ovarian
EKVX NSCLC = test system: EKVX NSCLC
SW-620 colon = test system: SW-620 colon
OVCAR-4 ovarian = test system: OVCAR-4 ovarian
HL-60(TB) leukemia = test system: HL-60(TB) leukemia
MDA-MB-231 breast = test system: MDA-MB-231 breast
SK-MEL-5 melanoma = test system: SK-MEL-5 melanoma
OVCAR-8 ovarian = test system: OVCAR-8 ovarian
SF-295 CNS = test system: SF-295 CNS
BT-549 breast = test system: BT-549 breast
A498 renal = test system: A498 renal

`Oc1c(Cl)c(Cl)c(O)c(-c2cnc(-c3ncc(-c4c(O)c(Cl)c(Cl)c(O)c4Cl)s3)s2)c1Cl` showed a TGI (M14 melanoma) of 47.2 µM, a TGI (UACC-62 melanoma) of 46.8 µM and a TGI (786-0 renal) of 53.2 µM. For the same molecule, the TGI (COLO 205 colon) was 97.2 µM, the TGI (KM12 colon) was greater than 100 µM and the TGI (HCT-116 colon) was 42 µM. The TGI (MALME-3M melanoma) was 71.3 µM, the TGI (NCI-H226 lung) was 14 µM and the TGI (SNB-75 CNS) was 71.7 µM. It also gave a TGI (HCT-15 colon) of 33.3 µM, a TGI (SK-OV-3 ovarian) greater than 100 µM and a TGI (HCC-2998 colon) greater than 100 µM. It also gave a TGI (HS 578T breast) of 56.5 µM, a TGI (MDA-MB-435) of 47.7 µM and a TGI (PC-3 prostate) greater than 100 µM. The TGI (OVCAR-3 ovarian) was 52.4 µM, the TGI (NCI-H522 lung) was 5.43 µM and the TGI (NCI-H460 lung) was greater than 100 µM. The TGI (NCI-H23 lung) was 39.9 µM, the TGI (MOLT-4 leukemia) was greater than 100 µM and the TGI (SK-MEL-28 melanoma) was 75.6 µM. It also gave a TGI (SK-MEL-2 melanoma) of 54.1 µM, a TGI (UACC-257 melanoma) of 97.8 µM and a TGI (SR leukemia) greater than 100 µM. It also gave a TGI (SF-268 CNS) of 55.3 µM, a TGI (A549 NSCLC) greater than 100 µM and a TGI (OVCAR-5 ovarian) of 36.4 µM. For the same molecule, the TGI (UO-31 renal) was 58.7 µM, the TGI (CAKI-1 renal) was 41.2 µM and the TGI (K-562 leukemia) was greater than 100 µM. For the same molecule, the TGI (MCF7 breast) was 52 µM, the TGI (HT29 colon) was greater than 100 µM and the TGI (SN12C renal) was 66.3 µM. For the same molecule, the TGI (HOP-62 NSCLC) was greater than 100 µM, the TGI (TK-10 renal) was 70.1 µM and the TGI (IGROV1 ovarian) was 37 µM. For the same molecule, the TGI (SNB-19 CNS) was 88.1 µM, the TGI (SF-539 CNS) was 81.7 µM and the TGI (RXF 393 renal) was 43.8 µM. It also gave a TGI (DU-145 prostate) greater than 100 µM, a TGI (T-47D breast) greater than 100 µM and a TGI (HOP-92 NSCLC) greater than 100 µM. For the same molecule, the TGI (U251 CNS) was 48.7 µM, the TGI (CCRF-CEM leukemia) was greater than 100 µM and the TGI (ACHN renal) was 51.5 µM. For the same molecule, the TGI (NCI/ADR-RES ovarian) was 71.6 µM, the TGI (EKVX NSCLC) was 61.5 µM and the TGI (SW-620 colon) was greater than 100 µM. It also gave a TGI (OVCAR-4 ovarian) greater than 100 µM, a TGI (HL-60(TB) leukemia) greater than 100 µM and a TGI (MDA-MB-231 breast) of 42.8 µM. It also gave a TGI (SK-MEL-5 melanoma) of 30.1 µM, a TGI (OVCAR-8 ovarian) of 52.7 µM and a TGI (SF-295 CNS) of 41.9 µM.

With `Cc1nccc2c3ccc(OCc4cn(-c5ccc(Br)cc5)nn4)cc3n(CCCc3ccccc3)c12` the GI50 (M14 melanoma) was 1.14 µM, the TGI (M14 melanoma) was 2.47 µM and the GI50 (UACC-62 melanoma) was 2.46 µM. It also gave a TGI (UACC-62 melanoma) of 7.08 µM, a GI50 (786-0 renal) of 1.49 µM and a TGI (786-0 renal) of 3.13 µM. The GI50 (KM12 colon) was 2.73 µM, the TGI (KM12 colon) was greater than 100 µM and the GI50 (HCT-116 colon) was 7.2 µM. For the same molecule, the TGI (HCT-116 colon) was greater than 100 µM, the GI50 (MALME-3M melanoma) was 1.62 µM and the TGI (MALME-3M melanoma) was 3.57 µM. For the same molecule, the GI50 (NCI-H226 lung) was 1.75 µM, the TGI (NCI-H226 lung) was 13.6 µM and the GI50 (SNB-75 CNS) was 1.54 µM. For the same molecule, the TGI (SNB-75 CNS) was 3.98 µM, the GI50 (SK-OV-3 ovarian) was 31.2 µM and the TGI (SK-OV-3 ovarian) was greater than 100 µM. It also gave a GI50 (HCC-2998 colon) greater than 100 µM, a TGI (HCC-2998 colon) greater than 100 µM and a GI50 (HS 578T breast) of 1.31 µM. The TGI (HS 578T breast) was 4.56 µM, the GI50 (PC-3 prostate) was 3.42 µM and the TGI (PC-3 prostate) was greater than 100 µM. It also gave a GI50 (OVCAR-3 ovarian) greater than 100 µM, a TGI (OVCAR-3 ovarian) greater than 100 µM and a GI50 (NCI-H460 lung) of 3.03 µM. It also gave a TGI (NCI-H460 lung) greater than 100 µM, a GI50 (MOLT-4 leukemia) of 5.55 µM and a TGI (MOLT-4 leukemia) greater than 100 µM. It also gave a GI50 (SK-MEL-28 melanoma) of 1.72 µM, a TGI (SK-MEL-28 melanoma) of 3.45 µM and a GI50 (SK-MEL-2 melanoma) greater than 100 µM. For the same molecule, the TGI (SK-MEL-2 melanoma) was greater than 100 µM, the GI50 (UACC-257 melanoma) was 2.06 µM and the TGI (UACC-257 melanoma) was 4.4 µM. For the same molecule, the GI50 (BT-549 breast) was 2.47 µM, the TGI (BT-549 breast) was 7.48 µM and the GI50 (SF-268 CNS) was 2.17 µM. The TGI (SF-268 CNS) was 5.85 µM, the GI50 (OVCAR-5 ovarian) was 2.15 µM and the TGI (OVCAR-5 ovarian) was 6.72 µM. It also gave a GI50 (UO-31 renal) of 1.41 µM, a TGI (UO-31 renal) of 3.01 µM and a GI50 (MCF7 breast) of 3.09 µM. For the same molecule, the TGI (MCF7 breast) was greater than 100 µM, the GI50 (HT29 colon) was 2.9 µM and the TGI (HT29 colon) was greater than 100 µM. It also gave a GI50 (HOP-62 NSCLC) of 3.16 µM, a TGI (HOP-62 NSCLC) of 29.6 µM and a GI50 (TK-10 renal) of 1.62 µM. For the same molecule, the TGI (TK-10 renal) was 3.29 µM, the GI50 (IGROV1 ovarian) was 6.44 µM and the TGI (IGROV1 ovarian) was greater than 100 µM. For the same molecule, the GI50 (SNB-19 CNS) was 3.35 µM, the TGI (SNB-19 CNS) was greater than 100 µM and the GI50 (SF-539 CNS) was 1.72 µM. The TGI (SF-539 CNS) was 3.4 µM, the GI50 (DU-145 prostate) was 5.2 µM and the TGI (DU-145 prostate) was greater than 100 µM. The GI50 (T-47D breast) was greater than 100 µM, the TGI (T-47D breast) was greater than 100 µM and the GI50 (HOP-92 NSCLC) was 47.4 µM. For the same molecule, the TGI (HOP-92 NSCLC) was greater than 100 µM, the GI50 (U251 CNS) was 1.92 µM and the TGI (U251 CNS) was 3.79 µM. It also gave a GI50 (CCRF-CEM leukemia) of 2.97 µM, a TGI (CCRF-CEM leukemia) greater than 100 µM and a GI50 (ACHN renal) of 1.23 µM. For the same molecule, the TGI (ACHN renal) was 3.52 µM, the GI50 (A498 renal) was greater than 100 µM and the TGI (A498 renal) was greater than 100 µM. The GI50 (NCI/ADR-RES ovarian) was 1.79 µM, the TGI (NCI/ADR-RES ovarian) was 4.61 µM and the GI50 (EKVX NSCLC) was greater than 100 µM. For the same molecule, the TGI (EKVX NSCLC) was greater than 100 µM, the GI50 (HL-60(TB) leukemia) was 6.53 µM and the TGI (HL-60(TB) leukemia) was greater than 100 µM. It also gave a GI50 (SK-MEL-5 melanoma) of 3.92 µM, a TGI (SK-MEL-5 melanoma) greater than 100 µM and a GI50 (OVCAR-8 ovarian) of 2.12 µM. For the same molecule, the TGI (OVCAR-8 ovarian) was 5.09 µM, the GI50 (SF-295 CNS) was greater than 100 µM and the TGI (SF-295 CNS) was greater than 100 µM.
